What was measured:
[1] = system: C. crescentus CB15N; experiment: Minimum stationary-bactericidal concentration (MSC); assay type: cell-based, Caulobacter crescentus; conditions: for MSC: C. crescentus CB15N, stationary cells, 24 hours
Procedure: Determination of the Minimum Stationary-Bactericidal Concentration.
Cultures of C. crescentus (24 hour incubation) and S. aureus cells (5 day incubation) were grown from single colonies. Cells were collected by centrifugation (8500 rpm for 2.5 minutes) and re-suspended in M2 salt solution (for C. crescentus; 1.74 g/L Na2HPO4, 1.06 g/L KH2PO4, and 0.5 g/L NH4Cl) or phosphate-buffered saline (for S. aureus; PBS, Fisher Scientific). The centrifugation and re-suspension was repeated two more times. After the repeated washing steps, the cell suspension was diluted 10-fold to achieve approximately 10^8 cells/mL. Aliquots of the diluted cell suspension were transferred into wells of a 96-well plate (100 μL/well), and 2-fold serial dilutions were performed to test a range of antibiotic concentrations. The plate was sealed with Parafilm® and incubated for 24 hours at room temperature in the dark. After incubation, 50 μl was removed from each well to spread on nutrient agar plates (1.5% agar in PYE for C. crescentus, and LB for S. aureus). The colonies on each plate were counted after growing the cells for 1-2 days. For determining the kinetics of bactericidal activity of DCAP on stationary cultures, the washed cells were diluted by 100-fold in appropriate solutions and tested using a single concentration of the compound while including a DMSO control sample. Cell suspensions were kept in closed microcentrifuge tubes instead of the wells of 96-well plates. 100 μL of the suspensions was removed for plating at each time point. All MSC experiments were performed in static conditions.
In addition to its activity against actively growing bacteria, DCAP kills cells in stationary phase (Table 3). This property was tested against C. crescentus and S. aureus. […] To ensure that bacteria were deprived of nutrients, the cells were grown into late stationary phase (i.e., 24 hours for C. crescentus and 5 days for S. aureus). These cells were collected, suspended in isotonic solutions devoid of amino acids or sugars, and treated with a small molecule (DMSO, DCAP, CCCP or ampicillin). Cell viability was measured over time by plating culture aliquots on non-selective, solid growth media. The minimum concentration of antibiotic required to completely eliminate colony formation was designated as the minimum stationary-bactericidal concentration (MSC). […] CCCP inhibited the proliferation of C. crescentus cells regardless of their physiological status. However, the MSC of CCCP for S. aureus was >300-fold higher than the MIC. This dramatic decrease in the effectiveness of CCCP in S. aureus may be due to changes in membrane composition as cells adjust their metabolism in nutrient-deprived conditions.

[2] = system: B. subtilis cells; experiment: Measurement of ΔΨ using DiOC2, flow cytometry; assay type: cell-based, Bacillus subtilis; conditions: 20 minutes of treatment, p<0.001
Procedure: Fluorescence microscopy and flow cytometry to measure ΔΨ. The fluorescent probe, 3,3′-diethyloxacarbocyanine iodide (DiOC2) was used to measure ΔΨ in DMSO and in compound-treated cells. To eliminate the possibility of an interaction between the probe and compounds, the fluorescence intensity of solutions of DiOC2 was measured in the presence and absence of the compounds as described in the art. To measure ΔΨ in B. subtilis cells, flow cytometry was used. Cell suspensions were labeled with 30 μM DiOC2 and filtered through a Nylon filter containing 60-μm diameter pores. The fluorescence of these cells was measured using a BD LSR II flow cytometer. The following instrument settings were used for detection: low flow rate, 488 nm excitation laser, 530/30 nm emission filter for green fluorescence, and 575/26 nm emission filter for red fluorescence. […] First, a gate was drawn around the region where cells were detected in the forward versus side scatter area plot. Gating enabled the exclusion of any non-cellular materials in the sample that the instrument detected. The ratio of red-to-green fluorescence was calculated for each particle within the gate using the software, and the resulting data was exported to GraphPad Prism to create box plots shown in FIG. 5. Statistical parameters were calculated using the Kruskal-Wallis non-parametric one-way analysis of variation (GraphPad InStat). […]

[3] = system: S. aureus FRI 100; experiment: Minimum biofilm inhibitory concentration (bMIC); assay type: cell-based, Staphylococcus aureus; conditions: S. aureus FRI 100 biofilm
Procedure: Determination of the minimum biofilm inhibitory concentration of growth (bMIC) and biofilm eradication concentration (MBEC). Overnight cultures of C. crescentus and S. aureus were grown and diluted 100-fold into appropriate nutrient media. Aliquots of the diluted suspension were transferred into wells of 96-well plates (150 μL/well). 2-fold serial dilutions were performed for compound-containing wells. For every experiment, three replicates for each compound concentration tested were included. After transferring aliquots of the suspension, the plates were closed with specialized lids that have protruding pins (Nunc STP System), and the plates were sealed using Parafilm®. The plates were incubated in a static incubator at 30° C. (C. crescentus) or 37° C. (S. aureus) for 24 hours. After the cells had formed biofilms on the surface of the pins, the pins were rinsed by dipping them in M2 (C. crescentus) or PBS (S. aureus) solutions. To rinse the pins, clean, sterile 96-well plates were used (aliquots of 200 μL/well); each rinse lasted 10 sec. After washing away planktonic cells loosely bound to biofilms, the pins were inserted into a 96-well plate that was pre-aliquoted with nutrient media containing antibiotics (2-fold dilutions, a final volume of 150 μL/well). The plates were sealed with Parafilm®, and incubated for 17 hours, and the bMIC was measured at the end of the incubation by visual inspection. […] The plates were sealed with Parafilm®, incubated for 24 hours, and the MBEC was measured at the end of the incubation by visual inspection.
Membrane-active compounds are also efficient at eradicating biofilm-associated cells (Table 2). […] To determine the efficacy of antibiotics against biofilms, the minimum biofilm inhibitory concentration (bMIC) and the minimum biofilm eradication concentration (MBEC) were measured. […] After 24 hours of exposure to compounds, the lowest concentration of antibiotic that inhibited planktonic cell growth in the wells (bMIC) was determined.

| SMILES | MSC [1] [µM] | ΔΨ (λ576/λ530 of DiOC2) [2] | bMIC [3] [µM] | Minimum time required to obtain the MSC ([1]; C. crescentus) [h] |
| --- | --- | --- | --- | --- |
| N#CC(C#N)=NNc1cccc(Cl)c1 [CCCP, carbonyl cyanide m-chlorophenyl hydrazone] | 2.5 | significant decrease in λ576/λ530 | 2.5 | – |
| OCC(CO)(CO)NCC(O)Cn1c2ccc(Cl)cc2c2cc(Cl)ccc21 (stereo not shown) [DCAP, 2-((3-(3,6-dichloro-9H-carbazol-9-yl)-2-hydroxypropyl)amino)-2-(hydroxymethyl)propane-1,3-diol] | 20 | significant decrease in λ576/λ530 | 100 | 2 |

Source: US10314816B2, “Antimicrobial compounds, compositions and methods of use thereof” (Wisconsin Alumni Research Foundation, priority 2012, dated 2019)
